Measured values as given in patent US20250090437A1, “COSMETIC COMPOUNDING AGENT, COSMETIC AND PRODUCTION METHOD THEREOF” (MIYOSHI OIL & FAT CO., LTD., priority 2019, published 2025).

Legend:
[1] = Water retention property test 3 (long term); format: physicochemical; details: for Amount of moisture reduction in 0 to 24 h / Amount of moisture reduction in 24 to 96 h / Amount of moisture reduction per hour / Pre-test moisture rate / Moisture rate after 24 h / Moisture rate after 96 h / Amount of moisture reduction in 96 to 120 h / Moisture rate after 120 h: 80 wt % aqueous solution; for Amount of moisture reduction in 0 to 24 h / Amount of moisture reduction in 24 to 96 h / Amount of moisture reduction in 96 to 120 h: 1.0 g; for Amount of moisture reduction in 0 to 24 h / Amount of moisture reduction in 24 to 96 h / Amount of moisture reduction per hour / Moisture rate after 24 h / Moisture rate after 96 h / Amount of moisture reduction in 96 to 120 h / Moisture rate after 120 h: 40° C. and 25% RH; for Pre-test moisture rate: before the test; for Moisture rate after 24 h / Moisture rate after 96 h / Moisture rate after 120 h: unsealed
Description: In a water retention property test 3, an 80 wt % aqueous solution of each of the compounds C8, C11, C62, C63 and C64 was prepared, followed by using a Karl Fischer moisture meter to confirm that a moisture rate was 20.0 wt %. Next, 1.0 g of each of these samples was added to a screw tube, and this screw tube, while remaining unsealed, was then left to stand still in a thermo-hygrostat set to 40° C. and 25% RH. […] In addition, the water retention property was evaluated by calculating an amount of moisture reduction per hour (mg/h) based on each amount of moisture reduction (mg).

[2] = Water retention property and adherability with respect to healthy hair; design: species or system human
Description: In the following evaluations, a human black hair produced by Beaulax Co., Ltd was used as a healthy hair. A damaged hair was prepared by repeatedly having the healthy hair permed and bleached three times.
An 80 wt % aqueous solution of each of the compounds B1 to B26 (content in terms of anhydride in the cases of the compounds B1 to B23) was prepared, followed by using a Karl Fischer moisture meter (KF-200 by Mitsubishi Chemical Analytech Co., Ltd.) to confirm that a moisture rate was 20.0 wt %. As a healthy hair, there was used a chemically untreated healthy hair (human black hair by Beaulax Co., Ltd). The moisture rate (pre-test moisture rate A) of the hair was measured by an infrared moisture meter (by Kett Electric Laboratory).
After immersion, the hair was taken out, and KimWipes were then used to wipe off the compound until a change in weight was no longer observed, followed by measuring the weight of the hair (post-test hair weight B). The hair from which the compound had been wiped off was then placed into a thermo-hygrostat set to 40° C. and 35 to 40% RH. A moisture rate after 24 hours (post-test moisture rate B) was then measured, followed by calculating a rate of reduction in moisture with the following formula. Likewise, instead of the 80 wt % aqueous solution, evaluation was also performed in a similar manner using only an ion-exchange water (comparative example B4).
Further, an adhesion rate of the compound adhering to the hair was calculated with the following formula. […]

[3] = Water retention property test 1; format: physicochemical; details: 80 wt % aqueous solution; for Water retention property test 1 Post-test moisture rate / Water retention property test 1 Rate of reduction in moisture / Post-test moisture rate / Rate of reduction in moisture: 24 hours at 40° C. and 25% RH; for Pre-test moisture rate: before the test (Karl Fischer); for Post-test moisture rate / Rate of reduction in moisture: unsealed
Description: A moisture rate after 24 hours was again measured (post-test moisture rate: B), followed by using the formula below to calculate a rate of reduction in moisture so as to evaluate the water retention property. • Pre-test moisture rate: A (%) • Post-test moisture rate: B (%)

CCCC[N+](CCCC)(CCCC)CCCC.[Br-] [Comparative example C13]
Amount of moisture reduction in 0 to 24 h ([1]; 0~24 h): 49.1 mg | Amount of moisture reduction in 24 to 96 h ([1]; 24~96 h): 145.8 mg | Amount of moisture reduction per hour ([1]; 0~24 h): 2.0 mg/h | Amount of moisture reduction per hour ([1]; 24~96 h): 2.0 mg/h | Pre-test moisture rate [1]: 20.0% | Moisture rate after 24 h [1]: 15.9% | Moisture rate after 96 h [1]: 0.7%

CCCCn1cc[n+](C)c1.F[B-](F)(F)F [Comparative example C14]
Amount of moisture reduction in 0 to 24 h ([1]; 0~24 h): 64.3 mg | Amount of moisture reduction in 24 to 96 h ([1]; 24~96 h): 134.4 mg | Amount of moisture reduction per hour ([1]; 0~24 h): 2.7 mg/h | Pre-test moisture rate [1]: 20.0% | Moisture rate after 24 h [1]: 14.5% | Moisture rate after 96 h [1]: 0.0%

OCC(O)CO [Comparative example C15]
Amount of moisture reduction in 0 to 24 h ([1]; 0~24 h): 24.6 mg | Amount of moisture reduction in 24 to 96 h ([1]; 24~96 h): 74.8 mg | Amount of moisture reduction in 96 to 120 h ([1]; 96~120 h): 25.0 mg | Amount of moisture reduction per hour ([1]; 0~24 h): 1.0 mg/h | Amount of moisture reduction per hour ([1]; 24~96 h): 1.0 mg/h | Amount of moisture reduction per hour ([1]; 96~120 h): 1.0 mg/h | Pre-test moisture rate [1]: 20.0% | Moisture rate after 24 h [1]: 18.0% | Moisture rate after 96 h [1]: 11.1% | Moisture rate after 120 h [1]: 8.6%

O [Compound B8]
Compound adhesion rate ([2]; healthy hair immersed 60 min in 80 wt % aqueous solution): 1.3% | Post-test moisture rate ([2]; healthy hair immersed 60 min in 80 wt % aqueous solution, after 24 hours at 40° C., 35 to 40% RH, pre-test 7.6%): 6.1% | Rate of reduction in moisture ([2]; healthy hair, 80 wt % aqueous solution, 24 hours at 40° C., 35 to 40% RH): 20%

C[N+](C)(C)CCO.O=C([O-])CCC(=O)O [Compound C31]
Water retention property test 1 Pre-test moisture rate [3]: 20.0% | Water retention property test 1 Post-test moisture rate [3]: 19.0% | Water retention property test 1 Rate of reduction in moisture [3]: 5.5%

CS(=O)(=O)[O-].C[N+](C)(C)CCO [Compound C32]
Water retention property test 1 Pre-test moisture rate [3]: 20.0% | Water retention property test 1 Post-test moisture rate [3]: 19.6% | Water retention property test 1 Rate of reduction in moisture [3]: 2.2%

C[N+](C)(C)CCO.O=P([O-])(O)O [Compound C33]
Water retention property test 1 Pre-test moisture rate [3]: 20.0% | Water retention property test 1 Post-test moisture rate [3]: 19.4% | Water retention property test 1 Rate of reduction in moisture [3]: 3.0%

C[N+](C)(C)CCO.O=[PH2][O-] [Compound C34]
Water retention property test 1 Pre-test moisture rate [3]: 20.0% | Water retention property test 1 Post-test moisture rate [3]: 19.4% | Water retention property test 1 Rate of reduction in moisture [3]: 3.0%

CC[N+](C)(C)CCO.CS(=O)(=O)[O-] [Compound C36]
Water retention property test 1 Pre-test moisture rate [3]: 20.0% | Water retention property test 1 Post-test moisture rate [3]: 19.6% | Water retention property test 1 Rate of reduction in moisture [3]: 2.0%

C[N+](C)(CCO)CC(O)CO.[Cl-] (stereo not drawn) [Compound C37]
Water retention property test 1 Pre-test moisture rate [3]: 20.0% | Water retention property test 1 Post-test moisture rate [3]: 18.3% | Water retention property test 1 Rate of reduction in moisture [3]: 8.3%

C[N+](C)(CCO)CC(O)C[N+](C)(C)CCO.[Cl-].[Cl-] [Compound C38]
Water retention property test 1 Pre-test moisture rate [3]: 20.0% | Water retention property test 1 Post-test moisture rate [3]: 18.1% | Water retention property test 1 Rate of reduction in moisture [3]: 9.5%

NCCO.O=C1OC(C(O)CO)C(O)=C1O (stereo not drawn) [Compound C40]
Water retention property test 1 Pre-test moisture rate [3]: 20.0% | Water retention property test 1 Post-test moisture rate [3]: 19.5% | Water retention property test 1 Rate of reduction in moisture [3]: 2.3%

O=C1OC(C(O)CO)C(O)=C1O.OCCNCCO (stereo not drawn) [Compound C41]
Water retention property test 1 Pre-test moisture rate [3]: 20.0% | Water retention property test 1 Post-test moisture rate [3]: 19.2% | Water retention property test 1 Rate of reduction in moisture [3]: 4.1%

O=C1OC(C(O)CO)C(O)=C1O.OCCN(CCO)CCO (stereo not drawn) [Compound C42]
Water retention property test 1 Pre-test moisture rate [3]: 20.0% | Water retention property test 1 Post-test moisture rate [3]: 19.1% | Water retention property test 1 Rate of reduction in moisture [3]: 4.4%

CC(C)(C)CO [Compound C44]
Water retention property test 1 Pre-test moisture rate [3]: 20.0% | Water retention property test 1 Post-test moisture rate [3]: 19.2% | Water retention property test 1 Rate of reduction in moisture [3]: 4.7%

CC(CO)CO [Compound C45]
Water retention property test 1 Pre-test moisture rate [3]: 20.0% | Water retention property test 1 Post-test moisture rate [3]: 19.5% | Water retention property test 1 Rate of reduction in moisture [3]: 2.5%

CCC(C)(CO)CO [Compound C48]
Water retention property test 1 Pre-test moisture rate [3]: 20.0% | Water retention property test 1 Post-test moisture rate [3]: 19.4% | Water retention property test 1 Rate of reduction in moisture [3]: 2.9%

CCC(O)C(O)C(O)C(O)CO (stereo not drawn) [Compound C56]
Pre-test moisture rate [3]: 20.0% | Post-test moisture rate [3]: 19.7% | Rate of reduction in moisture [3]: 1.7%

C[N+](C)(C)CCO.O=C1OC(C(O)CO)C([O-])=C1O (stereo not drawn) [Compound C57]
Pre-test moisture rate [3]: 20.0% | Post-test moisture rate [3]: 19.0% | Rate of reduction in moisture [3]: 5.0%

C[N+](C)(C)CC(O)CC(=O)O.O=C1O[C@H]([C@@H](O)CO)C([O-])=C1O [Compound C58]
Pre-test moisture rate [3]: 20.0% | Post-test moisture rate [3]: 19.2% | Rate of reduction in moisture [3]: 4.1%

CC(=O)OCC[N+](C)(C)C.O=C1O[C@H]([C@@H](O)CO)C([O-])=C1O [Compound C59]
Pre-test moisture rate [3]: 20.0% | Post-test moisture rate [3]: 19.3% | Rate of reduction in moisture [3]: 3.5%

CC(O)C(=O)O.NCCCC(=O)O [Compound C60]
Pre-test moisture rate [3]: 20.0% | Post-test moisture rate [3]: 18.1% | Rate of reduction in moisture [3]: 9.9%

CC(O)C(=O)O.NCCCCCC(=O)O [Compound C61]
Pre-test moisture rate [3]: 20.0% | Post-test moisture rate [3]: 18.1% | Rate of reduction in moisture [3]: 9.9%

CC(O)C(=O)O.NC(CO)CO (stereo not drawn) [Working example C117]
Amount of moisture reduction in 0 to 24 h ([1]; 0~24 h): 6.7 mg | Amount of moisture reduction in 24 to 96 h ([1]; 24~96 h): 20.1 mg | Amount of moisture reduction in 96 to 120 h ([1]; 96~120 h): 4.0 mg | Amount of moisture reduction per hour ([1]; 0~24 h): 0.3 mg/h | Amount of moisture reduction per hour ([1]; 24~96 h): 0.3 mg/h | Amount of moisture reduction per hour ([1]; 96~120 h): 0.2 mg/h | Pre-test moisture rate [1]: 20.0% | Moisture rate after 24 h [1]: 19.5% | Moisture rate after 96 h [1]: 17.8% | Moisture rate after 120 h [1]: 15.8% | Moisture rate of hydrate [1]: 16.6%

CS(=O)(=O)O.NC(CO)CO [Working example C118]
Amount of moisture reduction in 0 to 24 h ([1]; 0~24 h): 6.5 mg | Amount of moisture reduction in 24 to 96 h ([1]; 24~96 h): 20.0 mg | Amount of moisture reduction in 96 to 120 h ([1]; 96~120 h): 4.1 mg | Amount of moisture reduction per hour ([1]; 0~24 h): 0.3 mg/h | Amount of moisture reduction per hour ([1]; 24~96 h): 0.3 mg/h | Amount of moisture reduction per hour ([1]; 96~120 h): 0.2 mg/h | Pre-test moisture rate [1]: 20.0% | Moisture rate after 24 h [1]: 19.4% | Moisture rate after 96 h [1]: 17.6% | Moisture rate after 120 h [1]: 15.4% | Moisture rate of hydrate [1]: 16.1%
